The values that follow come from patent publication US9693974B2, “Antibacterial and antifungal biphenylyl compounds” (CHRISTIAN-ALBRECHTS-UNIVERSITY OF KIEL, priority 2010, dated 2017).

Experiment in all cases: MIC, Bouillon-microdilution method (CLSI M07-A8)
Common to all, as to assay type: cell-based

In assay [1] the test system is Aspergillus fumigatus ATCC 9197. The note with it: ATCC9197, read-out: MIC values A.f. Here is the method:
(§1) The respective determination is valid if in the growth control (DMSO and medium) a distinct turbidity is observed.
(§2) The minimum inhibitory concentrations of the substances of the present inventions against various infectious germs, i.a. against methicillin-resistant Staphylococcus aureus were determined with the Bouillon-microdilution method in accordance with the procedure M07-A8 of the Clinical and Laboratory Standards Institute (Pennsylvania, USA).
(§3) (Source: German Collection of Microorganisms and Cell Cultures, Braunschweig) Enterococcus hirae ATCC 10541, Staphylococcus epidermidis ATCC 12228, Staphylococcus aureus ATCC 6538, methicillin-resistant Staphylococcus aureus ATCC 33592, Bacillus cereus ATCC 11778, Candida albicans ATCC 10231, Aspergillus niger ATCC 16404, Aspergillus fumigatus ATCC 9197.
(§4) In sterile tubes with titled agar, bacteria with casein peptone soy flour peptone agar (Merck, Art. No. 1.05458.05), incubation 18-24 h at 34° C., fungi with Sabouraud 4% Glucose Agar (Merck 1.05438.05), incubation Candida albicans 18-24 h at 34° C., mold fungous 7 days at 22° C.
(§5) Suspensions are produced on titled agar by floating with 0.9% sterile NaCl solution. The turbidity is adjusted photometrically by dilution according to the turbidity of the Mc Farland-standard 0.5.
(§6) Subsequently, the bacterial suspensions are diluted in the ratio of 1:10, the Pi-suspension of the fungi remains undiluted.
(§7) The number of the germs in the inocula is adjusted so that there are approximately 5×10^5 colony forming units per milliliter after inoculation of the test wells.
(§8) The amount of a substance to be tested in a trial is weighed out on a microbalance with an Eppendorf reaction vessel and dissolved in an appropriate volume of dimethyl sulfoxide so that the concentration of the resulting solution corresponds to the 21 times highest final test concentration. The stock solution is subsequently diluted in a serial in a ratio respectively 1 ad 2 with DMSO resulting in seven different concentrations in the wells of a predilution plate. In the eighth well only DMSO is pipetted.
(§9) In each of the 96 wells of a test plate 95 μl sterile Mueller Hinton II medium (Cation adjusted, BBL™ Ref. 212322) for bacteria and sterile Sabouraud 2% glucose medium (DIFCO™ Ref 238230) for fungis are added with an eight-channel pipette (Socorex 50-200 μL). 5 μL of the solution to be tested are pipetted in each of the test wells of the plate (8-channel pipette, Eppendorf-Research, 5-10 μL). They are transferred in this way from the pre-dilutions that in the horizontal row A the highest concentration and respectively a half reduced concentration of the substance to be tested until row G and in row H only DMSO is pipetted. Subsequently, 5 μL of the inocula are pipetted in the test wells using an eight-channel pipette. In one test at least two, maximum four rows are inoculated with the same substance and the same germs. The concentrations of the test substance are each 128 μg/mL to 2 μg/mL.
(§10) The prepared plates are converted to a microtiter plate reader (Anthos ht111) which is connected to a printer. In this device, the plates are shaken for 60 seconds with high frequency before each measurement and the absorption of the probes is measured at the wavelength of light of 590 nm.
(§11) After determination of the initial values the plates are incubated at 34° C. for 16 to 20 h for bacteria and Candida albicans, and 68 to 72 h at 34° C. for mould fungis.
(§12) Following this the micro titer plates are measured again as described above.
(§13) The minimum inhibitory concentration is the lowest concentration of the tested substance which is able to inhibit the complete growth of the particular test organism, i.e. where after incubation no turbidity is measurable. The particular determination is valid when in the growth control (DMSO and medium) a distinct turbidity is observed.

In assay [2] the test system is Aspergillus niger ATCC 16404. The conditions noted are these: ATCC16404, read-out: MIC values A.n. Here is the method: as §1, §2, §3, §4, §5, §6, §7, §8, §9, §10, §11, §12, §13
The test system of assay [3] is Enterococcus hirae ATCC 10541. The note with it: ATCC10541, read-out: MIC values E.h. Here is the method: as §1, §2, §3, §4, §5, §6, §7, §8, §9, §10, §11, §12, §13
For assay [4], the system named is Staphylococcus aureus ATCC 6538. The conditions noted are these: for MIC: Staphylococcus aureus. Here is the method:
as §1, §2, §3, §4, §5, §6, §7, §8, §9, §10, §11, §12, §13

Assay [5] deals with Staphylococcus epidermidis ATCC 12228. The conditions noted are these: ATCC12228, Staphylococcus epidermis, read-out: MIC values S.e. The procedure: as §1, §2, §3, §4, §5, §6, §7, §8, §9, §10, §11, §12, §13
For assay [6], the system named is methicillin-resistant Staphylococcus aureus ATCC 33592. The conditions noted are these: for MIC: ATCC 33592 / MRSA, read-out: MIC values MRSA. Here is the method: as §1, §2, §3, §4, §5, §6, §7, §8, §9, §10, §11, §12, §13
The test system of another assay is Escherichia coli. The conditions noted are these: read-out: MIC values E.c. Here is the method:
as §1, §2, §4, §5, §6, §7, §8
as §9, with “Subsequently, 5 μL of the inocula are pipetted in the test wells using an eight-channel pipette. In one test at least two, maximum four rows are inoculated with the same substance and the same germs. The concentrations of the test substance are each 128 μg/mL to 2 μg/mL.” left out
(§14) The prepared plates are converted to a microtiter plate reader (Anthos ht111) which is connected to a printer. In this device, the plates are shaken for 60 seconds with high frequency before each measurement and the absorption of the probes is measured at the wavelength of light of 590 nm. […]
(§15) Following this the micro titer plates are measured again as described above. […]

The subject of a further assay is Pseudomonas aeroginosa. The note with it: read-out: MIC values P.a. Here is the method:
as §1, §2, §4, §5, §6, §7, §8
as §9, with “Subsequently, 5 μL of the inocula are pipetted in the test wells using an eight-channel pipette. In one test at least two, maximum four rows are inoculated with the same substance and the same germs. The concentrations of the test substance are each 128 μg/mL to 2 μg/mL.” left out
as §14, §15

Assay [7] deals with Candida albicans ATCC 10231. The procedure:
as §1, §2, §3, §4, §5, §6, §7, §8, §9, §10, §11, §12, §13

The mark [8] stands for this setting: ATCC6538, number of tests in brackets, rounded average of logarithmic endpoints, read-out: MIC values S.a.
[9] abbreviates: methicillin-resistant Staphylococcus aureus, number of tests in brackets.

Values after ≈ are worked out from the molar mass of the structure shown. Counter-ions that a name gives are not always drawn. Like-named read-outs stand apart in the source and are kept apart here.

The term MIC denotes the lowest concentration that inhibits growth of the organism. With `CN(C)CCCC(=O)c1ccc(-c2ccc(Br)cc2)cc1.Cl` [GG20-4, 4′-(4-bromophenyl)-4-dimethylaminobutyrophenone-hydrochloride], the minimal inhibitory concentration (MIC) is 8 µg/mL in [1]; 64 µg/mL in [2]; 16 µg/mL in assay [3]; 4 to 8 µg/mL in assay [4] (setting [8]); 4 µg/mL in assay [5]; 8 µg/mL in [6] (setting [9]). The MIC in the assay on Escherichia coli and in the assay on Pseudomonas aeroginosa was above 64 µg/mL each time.

Consider `CN(C)CCCCc1ccc(-c2ccc(Br)cc2)cc1` [GG28, 4-bromo-4′-(4-dimethylaminobutyl) biphenyl hydrochloride], for which the MIC in [7] (ATCC10231, read-out: MIC values C.a. (Yeast)) amounted to 8 µg/mL; in [4] (ATCC6538, read-out: MIC values S.a.), 13 µg/mL; in assay [6] (Staphylococcus aureus), 18 µg/mL.

As to `CN(C)CCC(=O)c1ccc(-c2ccc(Br)cc2)cc1.Cl` [GG20-3, reference compound], the MIC was 32 µg/mL in assay [4] (setting [8]); 16 µg/mL in assay [5]; 32 µg/mL in [6] (setting [9]); above 64 µg/mL in the assay with Escherichia coli; above 64 µg/mL in the assay with Pseudomonas aeroginosa.

As for `CN(C)CCCCC(=O)c1ccc(-c2ccc(Br)cc2)cc1.Cl` [GG20-5], the MIC in assay [7] (ATCC10231, Candida albicans, number of tests in brackets, read-out: MIC values C.a. (Yeast)) is 8 µg/mL; in [4] (setting [8]) it was 16 µg/mL; in [6] (setting [9]) it was 16 µg/mL.

As to `Cl.O=C(CCCN1CCN(c2ccccc2)CC1)c1ccc(-c2ccc(Br)cc2)cc1` [4′-(4-bromophenyl)-4-(N-phenylpiperazino)butyrophenone-hydrochloride, reference compound], in [4] (also after addition of higher concentrations), the “MIC value / growth inhibition of Staphylococcus aureus (result in words)” value was “did not inhibit the growth”.

`CN(C)[C@@H]1C(=O)C(C(N)=O)=C(O)[C@@]2(O)C(=O)C3=C(O)c4c(O)cccc4[C@@](C)(O)[C@H]3C[C@@H]12` [Tetracyclin, reference compound]: the “MIC values MRSA” value in [6] (setting [9]) was determined as 64 µg/mL (≈ 144 µM).

In the case of `CN[C@H](CC(C)C)C(=O)N[C@H]1C(=O)N[C@@H](CC(N)=O)C(=O)N[C@H]2C(=O)N[C@H]3C(=O)N[C@H](C(=O)N[C@H](C(=O)O)c4cc(O)cc(O)c4-c4cc3ccc4O)[C@H](O)c3ccc(c(Cl)c3)Oc3cc2cc(c3O[C@@H]2O[C@H](CO)[C@@H](O)[C@H](O)[C@H]2O[C@H]2C[C@](C)(N)[C@H](O)[C@H](C)O2)Oc2ccc(cc2Cl)[C@H]1O` [Vancomycin, reference compound], in assay [6] (Staphylococcus aureus), the MIC is below 2 µg/mL.
